Experimental data as given in patent US10787607B2, “High efficiency fluorescent compound and method for preparing the same” (SNU R&DB FOUNDATION, priority 2011, dated 2020).

Columns and labels:
[1] = system: Caspase-3 and PARP in osteosarcoma cell line (U2OS); assay: Western Blotting Test, osteosarcoma cell line (U2OS); type: cell-based; conditions: U2OS cells, 10 μM, FIG. 14
Description: (§1) After a certain period of time, the degree of cell extinction is evaluated by examining the degree of expression of extinction and damage of a specific factor by using Western Blotting Test and the result is shown in FIG. 14.

[2] = system: breast epithelial cell line; assay: Cytomorphology Test (microscopic examination of cultured cells); type: cell-based; conditions: cultured about 72 hours, FIG. 12
Description: (§2) In the presence of a test compound or a comparative compound, a cell line is cultured for a certain period of time (about 72 hours) and then a cytotoxicity test is conducted. As a control group, a blank test is conducted in the same manner as above without adding any compound including the test compound and the comparative compound.

breast epithelial cell = assay: Trypan Blue Exclusion Test; type: cell-based; conditions: both test concentrations 1 μM and 10 μM, FIG. 13
Description: as §2

[3] = system: Caspase-3 and PARP in breast epithelial cell line; assay: Western Blotting Test, breast epithelial cell line; type: cell-based; conditions: breast epithelial cell line, 1, 10 and 100 μM, FIG. 14
Description: as §1

[4] = in ethanol; cited from earlier work

COc1cc([C@@H]2c3cc4c(cc3[C@@H](O[C@@H]3O[C@@H]5CO[C@@H](C)O[C@H]5[C@H](O)[C@H]3O)[C@H]3COC(=O)[C@H]23)OCO4)cc(OC)c1O [Etoposide]
Western blot peaks from cell extinction and damage (Caspase-3, PARP) [1]: significantly remarkable peak at 17 kDa, 19 kDa and 89 kDa positions

CC(=O)/C=C/c1ccc2cc(O)cc(O)c2c1 [Example 1, (E)-4-(6,8-dihydroxynaphthalen-2-yl)but-3-en-2-one]
cytomorphology and number change of the cultured cell vs control group [2]: no significant difference from the control group | number of cells alive (trypan blue) vs control group (breast epithelial cell): number of cells similar to that of the control group | Western blot peaks from cell extinction and damage (Caspase-3, PARP) [3]: no peak at 17 kDa, 19 kDa and 89 kDa positions

CCN=c1cc2oc3cc(NCC)c(C)cc3c(-c3ccccc3C(=O)OCC)c-2cc1C.Cl [rhodamin 6G]
quantum yield of reference standard [4]: 0.95
